Common to all, as to assay: NCI-60 cell line screen, 48 h
Assay [1] relates to MCF7.
The test system of assay [2] is NCI/ADR-RES.
Assay [3] concerns T47D.
The test system of assay [4] is OVCAR-4.
In assay [5] the test system is NCI-H226.
Assay [6] relates to CAKI-1.
The test system of assay [7] is A549.
Assay [8] concerns MDA-MB-231.
The test system of assay [9] is OVCAR-8.
Assay [10] concerns OVCAR-5.
Assay [11] has as its system UO-31.
In assay [12] the test system is SNB-75.
The test system of assay [13] is CCRF-CEM.
The subject of assay [14] is HCT-15.
The test system of assay [15] is RPMI-8226.
For assay [16], the system named is SW-620.
The subject of assay [17] is LOX IMVI.

The record followed here is ChEMBL document CHEMBL1201862, “PubChem BioAssay data set” (2004).

Each structure is given as a SMILES string.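 Cells were grown in 96-well plates and exposed to each compound for 48 hours at five concentrations; endpoints were interpolated linearly between bracketing concentrations, or set to the highest concentration if not reached. Abbreviation: GI50, concentration required for 50% inhibition of growth.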 Activity calls are given as the source filed them. No stated cut-off is given here; in the data, active = GI50 up to about 1.1 µM and inactive = higher.

`O=C1c2ccccc2-c2nc(/C=C/c3ccccc3)cc3c2c1nc1ccccc13`: the GI50 in assay [1] is 19.1 µM (inactive); in [2] it was 33.8 µM (inactive); in [3], 48.8 µM (inactive); in assay [4], 68.7 µM (inactive); in [5], 69.2 µM (inactive); in assay [6], 26 µM (inactive). The GI50 is 30.6 µM (inactive) in assay [7]; 24.4 µM (inactive) in assay [8]; 24.3 µM (inactive) in assay [9]; > 100 µM (inactive) in assay [10]; 29.6 µM (inactive) in assay [11]; 17.8 µM (inactive) in assay [12]. The GI50 in assay [13] is 24.4 µM (inactive); in assay [14] it was 2.52 µM; in assay [15] it was 15.1 µM (inactive); in assay [16], 20 µM (inactive).
Regarding `COc1c2c(cc3c1OCO3)[C@]13C=C[C@H](OC)C[C@H]1N(C2)CC3O` (some centres not stated), the GI50 in [1], in [2], in assay [3], in assay [4], in assay [5] and in [6] was > 100 µM (inactive) throughout. The GI50 in assay [7], in assay [8], in [9], in assay [10], in assay [11] and in assay [17] was > 100 µM (inactive) in each case. Further, the GI50 in assay [13] was > 100 µM (inactive); in assay [14], > 100 µM; in assay [15], > 100 µM (inactive); in assay [16] it was > 100 µM (inactive).
`C=C1CN=C(Nc2ccc(Cl)cc2)S1`: the GI50 in [1] is 45.6 µM (inactive); in assay [2], > 100 µM (inactive); in assay [3], > 100 µM (inactive); in assay [4], > 100 µM (inactive); in [6], > 10 µM (inactive); in assay [7], > 100 µM (inactive). The GI50 is > 100 µM (inactive) in assay [8]; > 100 µM (inactive) in assay [9]; > 100 µM (inactive) in assay [10]; > 100 µM (inactive) in assay [11]; > 100 µM (inactive) in [12]; 62.1 µM (inactive) in [17]. Besides, the GI50 in assay [13] was 71 µM (inactive); in [14] it was > 100 µM; in assay [15], 83.8 µM (inactive); in assay [16], > 100 µM (inactive).
`C=CC[C@@]1(C(=O)OC)[C@H](Sc2ccccc2)C1(C)C`: the GI50 was 25.9 µM (inactive) in assay [1]; 44.9 µM (inactive) in assay [2]; > 100 µM (inactive) in assay [3]; 43.7 µM (inactive) in assay [4]; 35.5 µM (inactive) in assay [5]; 74.8 µM (inactive) in assay [6]. Further, the GI50 in assay [7] was 32.5 µM (inactive); in assay [8] it was 69 µM (inactive); in [9] it was 53.8 µM (inactive); in [10], 80.9 µM (inactive); in [11], 83 µM (inactive); in assay [12] it was 21.8 µM (inactive). In addition, the GI50 in [13] was 28.8 µM (inactive); in assay [14], 31 µM; in assay [15], 10.7 µM (inactive); in [16], 61.4 µM (inactive).
Take `CCOC(=O)NC(Nc1ccc(C(=O)O)cc1)(C(F)(F)F)C(F)(F)F`: the GI50 in assay [1], in assay [2], in [3], in assay [5], in [6] and in assay [7] was > 100 µM (inactive) throughout. Moreover, the GI50 in assay [8], in [9], in [10], in assay [11], in [12] and in [17] was > 100 µM (inactive) each time. Besides, the GI50 in assay [13] was > 100 µM (inactive); in assay [14], > 100 µM; in assay [15] it was > 100 µM (inactive); in [16] it was > 100 µM (inactive).
Consider `CNc1ccc2nc(-c3ccc(OC(=O)N(C)C)cc3)cn2c1`, for which the GI50 was 20.7 µM (inactive) in [1]; 23.3 µM (inactive) in assay [2]; 22.2 µM (inactive) in [3]; 17.5 µM (inactive) in assay [4]; 20.8 µM (inactive) in assay [5]; 21.4 µM (inactive) in assay [6]. In addition, the GI50 is 16.9 µM (inactive) in assay [7]; 17.1 µM (inactive) in [8]; 15.7 µM (inactive) in [9]; 22.9 µM (inactive) in assay [10]; 21.1 µM (inactive) in assay [11]; 17.7 µM (inactive) in [17]. For the same compound, the GI50 is 12.6 µM (inactive) in assay [13], 19.5 µM in assay [14] and 22.8 µM (inactive) in [16].
In the case of `OC[C@H]1CCCC1O` (some centres not stated), the GI50 in assay [1], in assay [2], in assay [3], in assay [4], in assay [5] and in assay [6] was > 100 µM (inactive) throughout. The GI50 is > 100 µM (inactive) in assay [7]; > 100 µM (inactive) in assay [8]; > 100 µM (inactive) in assay [9]; > 100 µM (inactive) in assay [10]; > 100 µM (inactive) in assay [11]; 73.1 µM (inactive) in assay [12]. Besides, the GI50 in assay [13] was > 100 µM (inactive); in assay [14], > 100 µM; in assay [15], > 100 µM (inactive); in assay [16], > 100 µM (inactive).
Consider `CCOC(=O)CN1C(=O)c2c(NC(=O)C(=O)O)cccc2S1(=O)=O`, for which the GI50 in [1], in [2], in assay [3], in assay [4], in [5] and in assay [6] was > 100 µM (inactive) in each case. Further, the GI50 in [7], in assay [8], in [9], in [10], in assay [11] and in assay [17] was > 100 µM (inactive) in each case. In addition, the GI50 in assay [13] was > 100 µM (inactive); in [14] it was > 100 µM; in assay [15], > 100 µM (inactive); in assay [16], > 100 µM (inactive).
Consider `CSc1c(C#N)c2n(c3ccccc13)c1ccccc1[n+]2C`, for which the GI50 was 35.6 µM (inactive) in assay [1]; 25.1 µM (inactive) in assay [2]; 30.1 µM (inactive) in assay [3]; 59.3 µM (inactive) in [4]; 21.3 µM (inactive) in [6]; 24.1 µM (inactive) in [7]. Also, the GI50 in [8] was 20.7 µM (inactive); in assay [9], 24 µM (inactive); in assay [10], 31.4 µM (inactive); in assay [11] it was 18.5 µM (inactive); in assay [12], 37.2 µM (inactive); in [17], 33.1 µM (inactive). For the same compound, the GI50 was 16 µM (inactive) in assay [13], 33.4 µM in assay [14], 17.3 µM (inactive) in [15] and 23.8 µM (inactive) in assay [16].
On to `COC(=O)c1c(C(=O)OC)c2ccc(-c3ccc(Cl)cc3)nn2c1C(=O)c1ccc([N+](=O)[O-])cc1`, for which the GI50 in assay [1] is 40.2 µM (inactive); in assay [2], > 100 µM (inactive); in [3], 27.9 µM (inactive); in assay [4], 42.3 µM (inactive); in assay [5], > 100 µM (inactive); in assay [6], 32.9 µM (inactive). In addition, the GI50 was > 100 µM (inactive) in assay [7]; > 100 µM (inactive) in [8]; 36.2 µM (inactive) in assay [9]; > 100 µM (inactive) in [10]; 32.1 µM (inactive) in assay [11]; 39 µM (inactive) in assay [17]. Moreover, the GI50 is 17.1 µM (inactive) in assay [13], 25.2 µM in [14], 16.7 µM (inactive) in assay [15] and 41.5 µM (inactive) in assay [16].
As for `C[Si](C)(C)C#CCOC=C1CC1`, the GI50 in assay [1], in assay [2], in assay [3], in [4], in assay [5] and in [6] was > 100 µM (inactive) in each case. For the same compound, the GI50 in assay [7], in assay [8], in assay [9], in [10], in assay [11] and in assay [12] was > 100 µM (inactive) each time. For the same compound, the GI50 in assay [17] was 28.6 µM (inactive); in assay [13], 34.4 µM (inactive); in assay [14] it was > 100 µM; in assay [16], > 100 µM (inactive).
Regarding `CSc1ccc(Nc2cc(=O)[nH]c(=O)[nH]2)cc1`, the GI50 in assay [1], in [2], in assay [3], in assay [4], in [5] and in [6] was > 100 µM (inactive) each time. In addition, the GI50 was > 100 µM (inactive) in [7]; > 100 µM (inactive) in assay [8]; 60.4 µM (inactive) in [9]; > 100 µM (inactive) in assay [10]; > 100 µM (inactive) in assay [11]; > 100 µM (inactive) in assay [17]. In addition, the GI50 was > 100 µM (inactive) in [13], > 100 µM in [14], > 100 µM (inactive) in [15] and > 100 µM (inactive) in assay [16].
Take `COc1ccc(C2C3CCc4ccccc4C3=NN2S(=O)(=O)c2ccc(Cl)cc2)cc1` (configuration not stated): the GI50 in assay [1] is 4.13 µM (inactive); in assay [2], 5 µM (inactive); in [3] it was 10.7 µM (inactive); in [4], 30.3 µM (inactive); in assay [5], 20.7 µM (inactive); in assay [6], 16.2 µM (inactive). In addition, the GI50 in [7] was 27.9 µM (inactive); in [8], 17.1 µM (inactive); in assay [9], 41.6 µM (inactive); in [10], 47.6 µM (inactive); in [11], 22.6 µM (inactive); in [17], 22.8 µM (inactive). Besides, the GI50 in assay [13] is 17.9 µM (inactive); in assay [14], 1.8 µM; in assay [15], 14 µM (inactive); in assay [16], 23.2 µM (inactive).
